Measured values from paper PMC4035770 (Pharmaceuticals, 2014).

Key:
[1] = molecular target: T1, Dopamine active transporter (DAT) (Homo sapiens, UniProt Q01959); test: Pharmacological screen, dopamine transporter; assay type: binding
T1 construct: MDS Pharma Services Taiwan

[2] = Michaelis-Menten kinetics of bupropion formation in pooled human liver microsomes; assay type: in vitro ADME; conditions: pooled HLM 0.1 mg/mL, substrate 1–500 µM, 20 min, 37 °C, n = 6
Experimental: Microsomes, NADPH regenerating solutions A and B were thawed rapidly to 37 °C, and then kept on ice until ready for use. Substrate solutions were prepared (1–500 µM) where the maximum concentration of DMSO was 1%, and the concentration of microsomes, NADPH regenerating solution B and phosphate buffer was fixed. After incubation for 5 min, NADPH regenerating solution A was added and the metabolism was initiated. Final volume was 100 μL. The tube was inverted twice and vortex mixed. The final concentrations of prodrug in this solution was 1–500 µM, HLM (0.1 mg/mL) or HIM (0.02 mg/mL), NADP^+ (1.3 mM), glucose-6-phosphate dehydrogenase (0.4 U/mL) and 1.0% DMSO. This solution was incubated for 20 min at 37 °C. The reaction was quenched by addition of 100 µL of acetonitrile. The mixture was centrifuged at 10,000 × g for 10 min. The supernatant was analyzed by LC-MS analysis.

[3] = Microsomal metabolic stability screen, pooled human liver microsomes (HLM); assay type: in vitro ADME; conditions: 10 µM prodrug, 0.1 mg/mL HLM, NADPH regenerating system, 37 °C, 60 min, n = 2; LOD 0.1 ng/mL
Experimental: Human liver microsome (HLM) stock solution preparation. HLM (0.5 mL) stock was added to PBS solution (9.5 mL). Final concentration; 1 mg/mL. The PBS solution was prepared by addition of one USP PBS tablet (Sigma-Aldrich catalogue number P4417) dissolved in 200 mL deionised water.
(§1) Microsomes, NADPH regenerating solutions A and B were thawed rapidly to 37 °C, then kept on wet ice until ready for use. A stock solution of the prodrug (5 mM) was prepared in ACN. To a 1.7 mL microcentrifuge tube in a 37 °C water bath was added the phosphate buffered saline solution (349 µL), the NADPH regenerating solution A (50 µL), the NADPH regenerating solution B (50 µL), and the prodrug solution (1 µL). After incubation for 5 min, microsome solution (50 µL) was added and the metabolism was initiated. The tube was vortex mixed. The final concentrations in this solution was 10 µM prodrug, 0.1 mg/mL HLM or 0.02 mg/mL HIM, 1.3 mM NADP^+, 0.4 U/mL glucose-6-phosphate dehydrogenase and 0.2% organic solvent. This solution was incubated for 60 min at 37 °C. The reaction was quenched by addition of acetonitrile (500 µL). The mixture was centrifuged at 10,000 × g for 10 min. The supernatant was analyzed by LC-MS analysis.
After passing through the intestinal membrane into the portal circulation the prodrug quickly enters the liver. This metabolic condition was simulated in the present work by using pooled human liver microsomes (HLM).

[4] = molecular target: Muscarinic non -selective, central; test: Pharmacological screen, muscarinic receptor binding
[5] = Screening incubation in USP simulated intestinal fluid (SIF); conditions: incubation 37 °C, one hour, n = 2; <LOD = bupropion, its metabolites or other prodrugs not detected; LOD 0.1 ng/mL
Experimental: USP simulated intestinal fluid preparation. Monobasic potassium phosphate (0.068 g) was dissolved in 2.5 mL of water and mixed. Sodium hydroxide (0.77 mL of 0.2 M) and water (5.0 mL) were added. Pancreatin (0.1 g) was added and the pH adjusted with either 0.2 M sodium hydroxide or 0.2 M hydrochloric acid to a pH of 6.8 ± 0.1. The solution was diluted to 10 mL with water.
(§2) Pepsin is most efficient at cleaving peptide bonds between hydrophobic and aromatic amino acids such as phenylalanine, tryptophan and tyrosine. In order to simulate the pH and digestive enzymes of the stomach, USP simulated gastric fluid (SGF) was used. Conditions in the intestine were simulated using USP simulated intestinal fluid (SIF).
(§3) One hour metabolism or hydrolysis was considered to be sufficient time to generate detectable levels of metabolites, bearing in mind the likely exposure time in vivo. A blank media was used in each analysis to subtract a background from each LC-MS sample chromatogram. A t0 sample was also used to identify impurities related to each prodrug.
(§4) After one hour incubation of each compound in the selected media, the mixture was quenched with acetonitrile and the sample was centrifuged to remove precipitated proteins. The supernatant solution was analyzed immediately by LC-MS using data dependent acquisition analysis.
(§5) This transformation is commonly used to assess activity of oxidative enzyme CYP2B6 in human liver and intestinal microsomes. […] It was important to report if any of the other prodrugs were detected if for instance a possible multistep-prodrug was found.

[6] = Aqueous pH stability profile at 40 °C
[7] = Screening incubation in USP simulated gastric fluid (SGF); conditions: incubation 37 °C, one hour, n = 2; <LOD = bupropion, its metabolites or other prodrugs not detected; LOD 0.1 ng/mL
Experimental: USP simulated gastric fluid preparation. Sodium chloride (0.02 g) and purified pepsin (0.032 g) that is derived from porcine stomach mucosa with an activity of 800 to 2,500 units per mg of protein were dissolved in 0.07 mL of concentrated hydrochloric acid and sufficient water to make 10 mL.
as §2, §3, §4, §5

[8] = molecular target: T2, Serotonin transporter (SERT) (Homo sapiens, UniProt P31645)
T2 sequence (P31645 whole entry): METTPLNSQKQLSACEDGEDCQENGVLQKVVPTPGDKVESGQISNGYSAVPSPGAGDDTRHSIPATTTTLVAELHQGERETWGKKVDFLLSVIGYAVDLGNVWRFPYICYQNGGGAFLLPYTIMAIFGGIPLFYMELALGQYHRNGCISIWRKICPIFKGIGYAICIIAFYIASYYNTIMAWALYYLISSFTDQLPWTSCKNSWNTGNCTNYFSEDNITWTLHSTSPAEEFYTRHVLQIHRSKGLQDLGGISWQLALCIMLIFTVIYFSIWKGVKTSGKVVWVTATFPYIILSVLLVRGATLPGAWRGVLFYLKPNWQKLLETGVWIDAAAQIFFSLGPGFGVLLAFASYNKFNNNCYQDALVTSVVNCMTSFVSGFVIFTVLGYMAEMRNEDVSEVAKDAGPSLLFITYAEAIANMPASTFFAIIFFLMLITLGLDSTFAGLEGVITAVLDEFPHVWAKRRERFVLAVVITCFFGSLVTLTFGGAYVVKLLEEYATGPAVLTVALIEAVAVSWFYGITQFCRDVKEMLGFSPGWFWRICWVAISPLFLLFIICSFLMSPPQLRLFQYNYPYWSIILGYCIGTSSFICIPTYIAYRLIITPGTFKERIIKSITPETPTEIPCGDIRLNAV

Nicotinic acetylcholine = test: Pharmacological screen, nicotinic acetylcholine receptor binding
Experimental: 2.4. Plasma LLOQ/Precision […]
of 10 ng/mL. […] ACN (200 µL) […]
was added and the solution was vortex mixed. The remaining mixture was centrifuged at 10,000 rpm […]
The final concentration was 1 ng/mL. […]
signal to noise ratio of three.
2.6. Brain LLOQ Accuracy/Precision
Aliquots (5 × 200 µL) were […]
transferred to 1.5 mL microcentrifuge tubes.
ACN (300 µL) was added and […]
the solution was vortex mixed. […] 200 µL
The solution was vortex mixed again and analysed by HPLC. Final concentrations were 12.5, 125 ng/mL.
2.7. Pharmacological Screening of N-Methyl Bupropion and Bupropion […]
nicotinic acetylcholine receptor [5,6] and SERT [7,8]. The specific nicotinic acetylcholine assays are […]
and nicotinic acetylcholine α7 [12].
3. Results Method Validation […]
diluent solutions separately.

[9] = Screening incubation in pooled human plasma (PHP); assay type: in vitro ADME; conditions: incubation 37 °C, one hour, n = 2; <LOD = bupropion, its metabolites or other prodrugs not detected; LOD 0.1 ng/mL
Description: Pooled human plasma solution preparation. Citrated human plasma was pooled together from three separate donors.
Finally, pooled human plasma (PHP) was used to evaluate the prodrug stability/activation in blood since the plasma fraction contains much of the hydrolase activity in blood.

[10] = molecular target: T2, Serotonin transporter (SERT); test: biochemical
[11] = molecular target: T3, Norepinephrine transporter (NET) (Homo sapiens, UniProt P23975); test: Pharmacological screen, norepinephrine transporter; assay type: binding
T3 construct: MDS Pharma Services Taiwan
T3 sequence (P23975 whole entry): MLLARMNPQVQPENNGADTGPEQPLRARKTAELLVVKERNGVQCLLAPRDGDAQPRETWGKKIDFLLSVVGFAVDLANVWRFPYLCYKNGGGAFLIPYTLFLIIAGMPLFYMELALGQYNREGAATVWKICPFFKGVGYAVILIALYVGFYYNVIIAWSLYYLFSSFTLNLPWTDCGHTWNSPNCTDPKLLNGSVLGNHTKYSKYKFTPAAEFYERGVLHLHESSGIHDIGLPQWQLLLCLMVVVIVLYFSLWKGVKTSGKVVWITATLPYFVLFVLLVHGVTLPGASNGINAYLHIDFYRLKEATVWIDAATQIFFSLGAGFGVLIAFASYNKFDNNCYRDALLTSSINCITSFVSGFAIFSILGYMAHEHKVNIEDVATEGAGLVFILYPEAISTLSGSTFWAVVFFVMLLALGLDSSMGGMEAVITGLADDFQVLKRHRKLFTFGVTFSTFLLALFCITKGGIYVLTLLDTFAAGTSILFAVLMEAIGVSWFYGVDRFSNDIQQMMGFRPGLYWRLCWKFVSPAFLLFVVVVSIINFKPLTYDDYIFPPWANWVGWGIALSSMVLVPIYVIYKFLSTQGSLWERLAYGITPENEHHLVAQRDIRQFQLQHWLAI

[12] = Microsomal metabolic stability screen, pooled human intestinal microsomes (HIM); assay type: in vitro ADME; conditions: 10 µM prodrug, 0.02 mg/mL HIM, NADPH regenerating system, 37 °C, 60 min, n = 2; LOD 0.1 ng/mL
Experimental: Human intestinal microsome (HIM) stock solution preparation. HIM (0.2 mL) stock was added to PBS solution (9.8 mL). Final concentration; 0.2 mg/mL.
as §1
The intestinal cells contain cytochome P450 enzymes, flavin monoxygenases, esterases and UDP glucuroyl transferases. Condition III involved the use of pooled human intestinal microsomes (HIM) in order to simulate the potential metabolism that occurs during absorption and passage through the intestinal wall.

T1 sequence (Q01959 whole entry): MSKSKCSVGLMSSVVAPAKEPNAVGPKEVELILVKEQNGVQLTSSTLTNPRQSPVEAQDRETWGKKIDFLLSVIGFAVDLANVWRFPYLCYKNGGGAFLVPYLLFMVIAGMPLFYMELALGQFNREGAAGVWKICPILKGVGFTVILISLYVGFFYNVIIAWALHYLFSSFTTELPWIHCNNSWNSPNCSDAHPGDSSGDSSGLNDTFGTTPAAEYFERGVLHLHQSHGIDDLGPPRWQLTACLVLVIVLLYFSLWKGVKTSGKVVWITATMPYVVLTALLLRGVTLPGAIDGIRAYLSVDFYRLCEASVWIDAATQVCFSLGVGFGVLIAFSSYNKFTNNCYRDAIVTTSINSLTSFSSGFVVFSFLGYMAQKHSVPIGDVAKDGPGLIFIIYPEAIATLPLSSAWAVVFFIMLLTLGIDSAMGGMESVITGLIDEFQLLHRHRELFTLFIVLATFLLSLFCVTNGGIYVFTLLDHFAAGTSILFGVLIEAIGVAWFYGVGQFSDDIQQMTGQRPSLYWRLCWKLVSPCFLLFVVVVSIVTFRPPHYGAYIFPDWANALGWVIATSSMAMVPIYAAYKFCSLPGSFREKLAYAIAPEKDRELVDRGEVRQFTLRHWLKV

Q: For CC(C(=O)c1cccc(Cl)c1)N(C)C(C)(C)C (racemic) [Compound 4, Rac-N-methyl bupropion], which IC50 [1] is on record?
A: 3.71 µM

Q: What about the Ki [1] of the same molecule?
A: 2950 nM

Q: And the “nH (Hill coefficient)” value ([1]; DAT)?
A: 0.924

Q: And the “activity as dopamine reuptake inhibitor, in words” value ([1]; compared with bupropion)?
A: less active than bupropion

Q: And the “Vmax of bupropion formation” value [2]?
A: 900.4 ± 73.8 pmol/min/mg HLM

Q: And the “Vmax of bupropion formation” value ([2]; listed as N-methylbupropion)?
A: 900.4 ± 74 pmol/min/mg HLM

Q: And the “Primary product detected in media HLM” value [3]?
A: bupropion was detected

Q: And the IC50 [4]?
A: 39.3 µM

Q: And the Ki ([4]; Cheng and Prusoff)?
A: 12.3 µM

Q: What about the “Primary product detected in media SIF” value [5] of the same molecule?
A: <LOD

Q: And the “aqueous degradation rate above pH 5” value ([6]; above pH 5)?
A: degraded faster than bupropion

Q: What about the “aqueous degradation rate above pH 12” value ([6]; above pH 12) of the same molecule?
A: rate of degradation decreased quite dramatically

Q: What about the “aqueous stability / degradation rate below pH 5” value ([6]; below pH 5) of the same molecule?
A: stable

Q: What about the “Primary product detected in media SGF” value [7] of the same molecule?
A: <LOD

Q: And the “effect on the serotonin transporter system, in words” value [8]?
A: little effect

Q: And the IC50 (Nicotinic acetylcholine; Nicotinic acetylcholine)?
A: 71.6 µM

Q: What about the Ki (Nicotinic acetylcholine; Nicotinic acetylcholine, Cheng and Prusoff) of the same molecule?
A: 49.2 µM

Q: And the “activity at the nicotinic acetylcholine receptors, in words” value (Nicotinic acetylcholine; compared with bupropion)?
A: more active than bupropion

Q: And the “Primary product detected in media PHP” value [9]?
A: <LOD

Q: What about the IC50 [10] of the same molecule?
A: > 100 µM

Q: What about the IC50 [11] of the same molecule?
A: 57.9 µM

Q: What about the Ki [11] of the same molecule?
A: 54.4 µM

Q: What about the “nH (Hill coefficient)” value ([11]; NET) of the same molecule?
A: 0.764

Q: What about the “activity as norepinephrine reuptake inhibitor, in words” value ([11]; compared with bupropion) of the same molecule?
A: less active than bupropion

Q: And the “Primary product detected in media HIM” value [12]?
A: bupropion was detected
